In this experiment the target is Beta-lactamase TEM (Escherichia coli, UniProt P62593). The experiment in a line: Inhibitory constant was determined against class A RTEM-1 Beta-lactamase from Escherichia coli.
Chain of Beta-lactamase TEM (P62593 whole entry): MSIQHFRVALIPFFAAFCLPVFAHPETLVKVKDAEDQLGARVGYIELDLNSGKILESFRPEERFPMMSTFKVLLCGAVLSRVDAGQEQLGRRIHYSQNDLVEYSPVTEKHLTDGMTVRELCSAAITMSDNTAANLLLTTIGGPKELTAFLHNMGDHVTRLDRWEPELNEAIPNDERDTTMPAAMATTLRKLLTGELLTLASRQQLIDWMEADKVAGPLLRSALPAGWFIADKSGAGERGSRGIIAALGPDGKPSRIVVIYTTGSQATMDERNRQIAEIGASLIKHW
Turning to `OB(O)c1cccc(-c2ccccc2)c1`, the Ki is 13.9 µM. Compound `OB(O)CCc1cccc2ccccc12` gave a Ki of 101 µM. This Ki lies about 7.3-fold higher than the previous one. The compound `OB(O)CCc1ccc(C(F)(F)F)cc1` gave a Ki of 43 µM. Compared with the last compound, the Ki is about 2.3-fold lower.

Take `Cc1ccc(CCB(O)O)cc1`: affinity was put at a Ki of 58 µM. For `OB(O)c1ccc(Cl)cc1Cl` the value was 94 µM; for `OB(O)c1ccc(Cl)c(Cl)c1`, 143 µM; for `Nc1cccc(B(O)O)c1`, 3700 µM. In turn, `OB(O)c1ccc(Br)cc1` showed a Ki of 28 µM. For the compound `O=C(O)c1ccc(CCB(O)O)cc1`, the inhibition constant Ki came to 49 µM. This Ki is about 1.8-fold higher than that of the compound before. In turn, `COc1ccc(B(O)O)cc1` yielded a Ki of 670 µM.

The compound `OB(O)CCc1ccc(Cl)cc1` came in with a Ki of 41 µM.

`Cc1ccccc1CCB(O)O`: the affinity corresponds to a Ki of 141 µM. `OB(O)CCc1ccc2ccccc2c1` had a Ki of 44 µM. This Ki is about 3.2-fold lower than that of the compound before. Then `OB(O)CCC1CCCCC1`, with 276 µM; and `OB(O)c1cccc(Br)c1`, with 83 µM; and `OB(O)c1ccc(F)c(Cl)c1`, with 152 µM. Consider `OB(O)CCc1ccccc1Cl`, for which the affinity, expressed as Ki, was 106 µM. For `Cc1cccc(CCB(O)O)c1` the value was 83 µM; for `COc1cccc(CCB(O)O)c1`, 50 µM. The compound `OB(O)c1ccccc1` [PHENYLBORONIC ACID] gave a Ki of 491 µM.

The term Ki denotes the dissociation constant of the complex between target and ligand, obtained from inhibition or displacement. The low end stands for higher affinity, the high end for lower affinity.

The values are drawn from ChEMBL document CHEMBL1127886, “Inhibition of the RTEM-1 -lactamase by boronic acids” (Bioorg Med Chem Lett, 1994).
